The source of these data is ChEMBL document CHEMBL5465560, “Selectivity Literature for EUbOPEN Chemogenomic Library” (2024).

SMILES strings stand for the structures. Where only a bound is given, the exact number is not on record here.

Assay [1] concerns the target Fibroblast growth factor receptor 4 (Homo sapiens, UniProt P22455). The assay is described as follows: Selectivity interaction (Ambit KINOMEscan and KiNATiv profiling in Jurkat cells) EUB0000090b FGFR4. To be noted: at 1 µM. The format is cell-based.
In assay [2] the target is Cyclin-dependent kinase 5 (Homo sapiens, UniProt Q00535). Nature of the assay: Selectivity interaction (Ambit KINOMEscan and KiNATiv profiling in Jurkat cells) EUB0000090b CDK5. To be noted: at 1 µM. The format is cell-based.
Assay [3] has as its target Serine/threonine-protein kinase SBK1 (Homo sapiens) (UniProt Q52WX2). The assay is described as follows: Selectivity interaction (KinomeScan (DiscoverX)) EUB0000229b SBK1. To be noted: at 10 µM.
For assay [4], the target named is Histone-lysine N-methyltransferase 2C (Homo sapiens) (UniProt Q8NEZ4). Nature of the assay: Selectivity interaction (Methyltransferase screen (Scintillation proximity assays)) EUB0000255b MLL3. In general terms: In a scintillation proximity assay essentially only radioactivity close to the scintillant gives light.
Assay [5] deals with T1, Inhibitor of nuclear factor kappa-B kinase subunit beta (Homo sapiens) (UniProt O14920).
T1 sequence (whole entry): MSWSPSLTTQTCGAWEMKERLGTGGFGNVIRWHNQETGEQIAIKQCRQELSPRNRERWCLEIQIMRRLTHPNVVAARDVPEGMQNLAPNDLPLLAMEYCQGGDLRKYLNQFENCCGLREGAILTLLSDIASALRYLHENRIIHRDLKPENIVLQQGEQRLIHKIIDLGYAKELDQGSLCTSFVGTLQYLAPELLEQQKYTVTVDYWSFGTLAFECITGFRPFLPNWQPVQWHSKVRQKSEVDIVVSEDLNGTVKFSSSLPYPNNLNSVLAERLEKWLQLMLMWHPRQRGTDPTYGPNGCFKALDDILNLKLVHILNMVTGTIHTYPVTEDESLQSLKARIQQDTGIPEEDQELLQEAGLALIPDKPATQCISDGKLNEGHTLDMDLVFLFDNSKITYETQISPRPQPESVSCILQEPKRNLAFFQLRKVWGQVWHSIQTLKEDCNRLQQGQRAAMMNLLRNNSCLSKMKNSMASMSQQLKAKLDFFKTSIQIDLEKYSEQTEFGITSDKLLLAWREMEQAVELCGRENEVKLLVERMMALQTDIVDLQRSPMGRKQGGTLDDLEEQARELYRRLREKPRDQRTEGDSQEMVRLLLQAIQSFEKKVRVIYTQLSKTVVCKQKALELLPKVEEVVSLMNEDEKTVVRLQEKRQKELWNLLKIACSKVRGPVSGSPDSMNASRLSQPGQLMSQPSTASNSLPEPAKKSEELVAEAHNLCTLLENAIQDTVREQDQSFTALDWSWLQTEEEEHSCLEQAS
Nature of the assay: Selectivity interaction (ActivX KiNativ screen (ex vivo kinase selectivity in human PBMCs)) EUB0001619a IKBKB. The format is cell-based. To be noted: PBMC, at 1 µM.

The target in assay [6] is T2, Ribosomal protein S6 kinase alpha-1 (Homo sapiens, UniProt Q15418). Nature of the assay: Selectivity interaction (ActivX KiNativ screen (ex vivo kinase selectivity in human PBMCs)) EUB0001619a RPS6KA1. Format: cell-based. To be noted: PBMC, at 1 µM.
A further assay has as its target Misshapen-like kinase 1 (Homo sapiens, UniProt Q8N4C8). The assay is described as follows: Selectivity interaction (ActivX KiNativ screen (ex vivo kinase selectivity in human PBMCs)) EUB0001619a MINK1. To be noted: PBMC, at 1 µM. The format is cell-based.
Assay [7] deals with T2, Ribosomal protein S6 kinase alpha-1. The assay is described as follows: Selectivity interaction (ActivX KiNativ screen (kinase selectivity in THP-1 cell lysates)) EUB0000639a RPS6KA1. Format: subcellular. To be noted: lysate, at 0.2 µM.
Assay [8] concerns the target Serine/threonine-protein kinase 38 (Homo sapiens) (UniProt Q15208). Nature of the assay: Selectivity interaction (ActivX KiNativ screen (kinase selectivity in THP-1 cell lysates)) EUB0000639a STK38. Format: subcellular. To be noted: lysate, at 0.2 µM.
Assay [9] deals with T3, Serine/threonine-protein kinase Sgk1 (Homo sapiens) (UniProt O00141).
T3 sequence (whole entry): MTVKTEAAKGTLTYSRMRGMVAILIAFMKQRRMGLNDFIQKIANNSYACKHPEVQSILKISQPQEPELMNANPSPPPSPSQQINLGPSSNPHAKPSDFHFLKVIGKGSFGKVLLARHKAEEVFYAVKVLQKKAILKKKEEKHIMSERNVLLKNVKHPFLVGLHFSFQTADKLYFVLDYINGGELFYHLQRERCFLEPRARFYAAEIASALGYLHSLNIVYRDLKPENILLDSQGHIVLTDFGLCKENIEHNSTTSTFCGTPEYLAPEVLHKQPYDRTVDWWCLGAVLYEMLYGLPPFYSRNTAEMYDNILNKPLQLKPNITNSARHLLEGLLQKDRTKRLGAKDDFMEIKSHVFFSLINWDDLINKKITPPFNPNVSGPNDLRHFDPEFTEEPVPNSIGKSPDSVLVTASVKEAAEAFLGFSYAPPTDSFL
The assay is described as follows: Selectivity interaction (Millipore kinase profiler) EUB0000124b SGK1. To be noted: at 10 µM.

Assay [10] has as its target T4, SNF-related serine/threonine-protein kinase (Homo sapiens) (UniProt Q9NRH2).
T4 sequence (whole entry): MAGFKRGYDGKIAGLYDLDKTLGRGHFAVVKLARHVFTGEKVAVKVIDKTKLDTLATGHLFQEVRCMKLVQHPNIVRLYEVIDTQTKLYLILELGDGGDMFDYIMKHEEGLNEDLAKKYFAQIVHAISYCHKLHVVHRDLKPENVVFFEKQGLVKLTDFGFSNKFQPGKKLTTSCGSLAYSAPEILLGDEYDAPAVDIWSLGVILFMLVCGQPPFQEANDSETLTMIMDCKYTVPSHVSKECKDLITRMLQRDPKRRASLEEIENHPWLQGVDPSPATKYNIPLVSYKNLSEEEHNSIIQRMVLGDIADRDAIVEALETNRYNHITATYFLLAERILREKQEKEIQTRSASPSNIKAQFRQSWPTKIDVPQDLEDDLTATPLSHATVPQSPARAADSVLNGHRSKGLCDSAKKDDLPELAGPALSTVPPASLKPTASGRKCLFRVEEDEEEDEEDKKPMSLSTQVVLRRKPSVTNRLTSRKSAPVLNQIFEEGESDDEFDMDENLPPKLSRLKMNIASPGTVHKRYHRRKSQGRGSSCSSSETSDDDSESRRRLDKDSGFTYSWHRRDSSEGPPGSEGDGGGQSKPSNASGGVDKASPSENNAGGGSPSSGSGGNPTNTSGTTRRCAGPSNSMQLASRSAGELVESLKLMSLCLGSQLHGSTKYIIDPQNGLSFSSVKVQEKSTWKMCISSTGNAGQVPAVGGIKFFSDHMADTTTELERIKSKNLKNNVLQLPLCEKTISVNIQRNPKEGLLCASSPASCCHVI
Nature of the assay: Selectivity interaction (KinomeScan (DiscoverX)) EUB0001049a SNRK. To be noted: at 1 µM.

Assay [11] deals with Serine/threonine-protein kinase 33 (Homo sapiens) (UniProt Q9BYT3). The assay is described as follows: Selectivity interaction (KinomeScan (DiscoverX)) EUB0000695a STK33. To be noted: at 100 nM.
For assay [12], the target named is Citron Rho-interacting kinase (Homo sapiens) (UniProt O14578). The assay is described as follows: Selectivity interaction (KinomeScan (DiscoverX)) EUB0000092b CIT. To be noted: at 10 µM.
Citron Rho-interacting kinase (Homo sapiens), sequence (O14578 whole entry): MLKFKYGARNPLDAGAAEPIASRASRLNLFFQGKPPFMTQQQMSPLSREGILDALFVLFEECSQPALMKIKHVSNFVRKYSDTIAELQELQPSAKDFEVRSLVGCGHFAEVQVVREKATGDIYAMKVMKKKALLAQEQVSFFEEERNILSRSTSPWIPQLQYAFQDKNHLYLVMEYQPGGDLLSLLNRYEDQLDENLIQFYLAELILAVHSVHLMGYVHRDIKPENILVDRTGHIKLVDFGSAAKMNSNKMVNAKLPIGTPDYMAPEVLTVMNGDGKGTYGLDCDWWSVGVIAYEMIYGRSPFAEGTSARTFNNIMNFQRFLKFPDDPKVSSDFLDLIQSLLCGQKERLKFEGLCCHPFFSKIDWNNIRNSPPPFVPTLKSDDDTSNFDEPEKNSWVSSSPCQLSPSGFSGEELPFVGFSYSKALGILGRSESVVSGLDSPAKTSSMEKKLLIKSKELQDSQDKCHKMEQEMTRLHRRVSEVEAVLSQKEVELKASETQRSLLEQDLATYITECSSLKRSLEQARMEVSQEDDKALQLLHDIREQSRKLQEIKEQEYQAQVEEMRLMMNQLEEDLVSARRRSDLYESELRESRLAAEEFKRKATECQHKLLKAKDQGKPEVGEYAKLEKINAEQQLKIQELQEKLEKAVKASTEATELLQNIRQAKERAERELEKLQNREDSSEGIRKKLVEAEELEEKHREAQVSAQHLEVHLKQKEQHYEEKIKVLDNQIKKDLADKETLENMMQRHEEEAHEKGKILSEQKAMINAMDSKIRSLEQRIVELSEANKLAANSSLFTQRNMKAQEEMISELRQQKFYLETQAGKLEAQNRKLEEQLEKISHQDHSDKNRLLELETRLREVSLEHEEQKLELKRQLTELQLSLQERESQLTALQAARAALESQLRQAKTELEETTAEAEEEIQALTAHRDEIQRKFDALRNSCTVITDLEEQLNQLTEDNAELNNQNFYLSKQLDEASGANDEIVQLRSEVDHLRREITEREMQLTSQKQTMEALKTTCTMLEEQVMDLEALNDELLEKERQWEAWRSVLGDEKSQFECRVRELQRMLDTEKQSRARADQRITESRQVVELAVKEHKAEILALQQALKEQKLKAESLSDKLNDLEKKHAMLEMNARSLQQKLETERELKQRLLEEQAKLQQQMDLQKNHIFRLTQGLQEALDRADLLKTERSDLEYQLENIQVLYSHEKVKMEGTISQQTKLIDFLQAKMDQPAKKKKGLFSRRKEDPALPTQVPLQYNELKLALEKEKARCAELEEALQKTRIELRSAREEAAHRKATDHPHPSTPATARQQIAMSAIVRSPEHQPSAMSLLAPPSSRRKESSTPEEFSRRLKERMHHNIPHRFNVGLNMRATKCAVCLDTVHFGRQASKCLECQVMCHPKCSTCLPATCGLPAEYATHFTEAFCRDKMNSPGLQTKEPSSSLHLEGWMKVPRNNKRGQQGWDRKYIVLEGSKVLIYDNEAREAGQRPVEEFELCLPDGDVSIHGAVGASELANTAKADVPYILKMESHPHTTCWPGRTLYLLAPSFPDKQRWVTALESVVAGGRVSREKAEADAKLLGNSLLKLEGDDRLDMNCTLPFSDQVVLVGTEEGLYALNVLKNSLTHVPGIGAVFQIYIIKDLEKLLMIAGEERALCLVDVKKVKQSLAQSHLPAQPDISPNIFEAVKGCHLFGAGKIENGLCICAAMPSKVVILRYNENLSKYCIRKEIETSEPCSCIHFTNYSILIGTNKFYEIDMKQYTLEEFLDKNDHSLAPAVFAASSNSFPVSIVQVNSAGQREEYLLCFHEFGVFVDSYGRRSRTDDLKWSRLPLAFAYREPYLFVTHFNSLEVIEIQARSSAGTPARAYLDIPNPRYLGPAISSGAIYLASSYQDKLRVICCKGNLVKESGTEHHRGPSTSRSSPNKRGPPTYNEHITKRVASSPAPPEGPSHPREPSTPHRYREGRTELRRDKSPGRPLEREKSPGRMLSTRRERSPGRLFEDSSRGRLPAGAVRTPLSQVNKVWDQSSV

T2 sequence (Q15418 whole entry): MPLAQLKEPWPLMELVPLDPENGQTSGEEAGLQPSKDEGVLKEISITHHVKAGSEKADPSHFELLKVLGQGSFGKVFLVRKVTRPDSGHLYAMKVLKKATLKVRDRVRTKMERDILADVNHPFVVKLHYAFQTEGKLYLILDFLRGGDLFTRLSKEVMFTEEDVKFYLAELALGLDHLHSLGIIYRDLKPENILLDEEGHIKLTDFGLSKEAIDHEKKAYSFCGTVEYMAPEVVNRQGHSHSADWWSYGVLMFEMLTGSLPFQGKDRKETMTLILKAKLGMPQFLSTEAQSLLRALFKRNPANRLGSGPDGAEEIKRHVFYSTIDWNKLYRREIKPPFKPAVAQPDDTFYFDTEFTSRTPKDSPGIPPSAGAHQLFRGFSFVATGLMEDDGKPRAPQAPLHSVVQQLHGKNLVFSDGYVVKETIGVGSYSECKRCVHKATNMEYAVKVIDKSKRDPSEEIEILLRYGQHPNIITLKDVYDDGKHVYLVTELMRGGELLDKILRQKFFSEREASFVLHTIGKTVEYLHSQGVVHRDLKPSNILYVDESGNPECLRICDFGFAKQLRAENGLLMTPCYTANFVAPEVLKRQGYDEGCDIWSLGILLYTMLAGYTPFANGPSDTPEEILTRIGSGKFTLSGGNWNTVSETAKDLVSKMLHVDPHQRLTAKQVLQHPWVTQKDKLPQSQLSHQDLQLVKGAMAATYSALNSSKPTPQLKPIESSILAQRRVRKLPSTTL
Serine/threonine-protein kinase 33 (Homo sapiens), sequence (Q9BYT3 whole entry, looked up): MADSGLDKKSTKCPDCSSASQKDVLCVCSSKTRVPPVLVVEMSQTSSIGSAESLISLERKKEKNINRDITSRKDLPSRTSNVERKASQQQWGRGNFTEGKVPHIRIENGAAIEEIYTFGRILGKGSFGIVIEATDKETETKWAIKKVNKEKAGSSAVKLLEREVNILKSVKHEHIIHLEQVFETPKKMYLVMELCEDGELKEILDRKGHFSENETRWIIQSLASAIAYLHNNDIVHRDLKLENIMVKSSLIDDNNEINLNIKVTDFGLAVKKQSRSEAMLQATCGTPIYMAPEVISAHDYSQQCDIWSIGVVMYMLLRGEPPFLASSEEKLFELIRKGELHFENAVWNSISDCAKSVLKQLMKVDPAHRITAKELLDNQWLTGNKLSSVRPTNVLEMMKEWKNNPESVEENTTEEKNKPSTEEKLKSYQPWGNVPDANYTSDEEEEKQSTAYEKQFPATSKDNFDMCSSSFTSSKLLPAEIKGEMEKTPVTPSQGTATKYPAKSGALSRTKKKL
Serine/threonine-protein kinase 38 (Homo sapiens), sequence (Q15208 2-465 limits assumed): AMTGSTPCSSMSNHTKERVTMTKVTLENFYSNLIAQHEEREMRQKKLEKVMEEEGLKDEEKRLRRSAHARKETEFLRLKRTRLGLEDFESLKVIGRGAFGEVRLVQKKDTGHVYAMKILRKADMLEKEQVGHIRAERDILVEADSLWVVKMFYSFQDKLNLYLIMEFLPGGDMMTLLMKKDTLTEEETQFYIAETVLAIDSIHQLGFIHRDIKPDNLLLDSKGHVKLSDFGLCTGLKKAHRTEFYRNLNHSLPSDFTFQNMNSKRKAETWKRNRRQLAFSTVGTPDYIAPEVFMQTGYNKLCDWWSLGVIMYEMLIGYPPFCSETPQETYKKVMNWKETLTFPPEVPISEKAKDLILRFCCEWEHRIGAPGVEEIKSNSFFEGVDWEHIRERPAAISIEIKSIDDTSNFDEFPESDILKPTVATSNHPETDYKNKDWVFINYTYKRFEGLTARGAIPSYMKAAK
Cyclin-dependent kinase 5, sequence (Q00535 whole entry, looked up): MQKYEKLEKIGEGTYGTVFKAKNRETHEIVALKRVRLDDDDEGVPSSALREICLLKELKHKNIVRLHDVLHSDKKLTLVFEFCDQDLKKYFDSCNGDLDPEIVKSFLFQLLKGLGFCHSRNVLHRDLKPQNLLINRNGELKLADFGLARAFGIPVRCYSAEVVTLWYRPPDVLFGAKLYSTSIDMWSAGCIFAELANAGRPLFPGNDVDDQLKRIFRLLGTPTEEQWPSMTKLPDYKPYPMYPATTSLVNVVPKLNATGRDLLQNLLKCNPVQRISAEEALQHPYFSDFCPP
Fibroblast growth factor receptor 4, sequence (P22455 22-802 limits assumed): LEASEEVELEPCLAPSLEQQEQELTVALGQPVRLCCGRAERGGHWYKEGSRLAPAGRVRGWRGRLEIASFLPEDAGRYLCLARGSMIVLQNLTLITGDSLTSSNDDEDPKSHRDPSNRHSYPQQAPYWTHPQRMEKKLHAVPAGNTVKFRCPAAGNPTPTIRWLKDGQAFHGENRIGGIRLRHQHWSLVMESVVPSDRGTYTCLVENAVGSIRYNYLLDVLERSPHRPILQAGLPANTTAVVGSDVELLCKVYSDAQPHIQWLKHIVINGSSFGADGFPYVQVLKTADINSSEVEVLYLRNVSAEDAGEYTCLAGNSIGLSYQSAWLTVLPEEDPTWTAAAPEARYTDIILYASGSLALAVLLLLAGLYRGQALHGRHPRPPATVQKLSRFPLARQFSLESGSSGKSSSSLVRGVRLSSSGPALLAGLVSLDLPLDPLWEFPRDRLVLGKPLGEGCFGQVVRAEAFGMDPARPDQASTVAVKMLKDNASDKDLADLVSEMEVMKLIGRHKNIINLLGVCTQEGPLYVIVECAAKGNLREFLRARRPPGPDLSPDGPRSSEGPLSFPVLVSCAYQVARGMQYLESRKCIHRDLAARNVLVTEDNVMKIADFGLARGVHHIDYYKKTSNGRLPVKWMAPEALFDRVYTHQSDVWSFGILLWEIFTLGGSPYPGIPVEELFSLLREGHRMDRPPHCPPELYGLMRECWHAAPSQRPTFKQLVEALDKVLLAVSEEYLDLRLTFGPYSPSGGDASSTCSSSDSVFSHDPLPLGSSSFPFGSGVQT

Take `CN(C)C/C=C/C(=O)Nc1ccc(C(=O)N2CCCC(Nc3ncc(Cl)c(-c4c[nH]c5ccccc45)n3)C2)cc1` (centres undefined): the % of control in [1] is 86%; in assay [2], 89%.

In assay [3], `COc1cc(N(C)c2ccnc3ccc(C(F)(F)F)cc23)cc(OC)c1OC` came in with a % binding of 92%.

On to `COCCN1CCC(c2cc(CN(C)C(=O)c3cccc(Oc4ccccc4)c3)ccn2)CC1`, for which the % activity in assay [4] (at 1 µM) was more than 95%; in assay [4] (at 10 µM), more than 90%.

Consider `N#Cc1cccc(-c2c[nH]c3ncnc(N4CCOCC4)c23)c1`, for which the % of inhibition is -16% in assay [5], 13% in [6] and 15% on Misshapen-like kinase 1.

As to `CC[C@@H]1[C@H](F)C(=O)N[C@@H]1COc1nccc2cc(C(N)=O)c(OC)cc12` [ZIMLOVISERTIB], the figures for the % of inhibition in assay [7] and in assay [8] were -12.2% and 22.6%, respectively.

In turn, `CC(=O)Nc1cccc(-n2c(=O)n(C3CC3)c(=O)c3c(Nc4ccc(I)cc4F)n(C)c(=O)c(C)c32)c1` returned a % of control in [9] of 114%.

Consider `COc1cc(Nc2nc(C)cc(-c3cnn4nc(OC)ccc34)n2)cc(C(F)(F)F)c1`, for which, in [10], the % of control amounted to 100%.

Turning to `Cc1cc(F)c(C(=O)Nc2cccc(-c3nncn3C(C)C)n2)cc1-n1cnc(C2CC2)c1`, the % of control in assay [11] came out at 78%.

`CCC(=O)N1CCN(c2ccc(-n3c(=O)ccc4cnc5ccc(-c6cnc7ccccc7c6)cc5c43)cc2C(F)(F)F)CC1` had a % of control in assay [12] of 59%.
